The values that follow come from patent US11226337B2, “Chemoproteomic profiling of protein electrophilic and oxidative post-translational modifications” (Zenagem, LLC, priority 2017, dated 2022).

Holding throughout (assay): SILAC RP-ABPP
Assay type in all cases: cell-based

Test [1] addresses T1, LIPA Lysosomal acid lipase/cholesteryl ester (P38571) (Homo sapiens, UniProt P38571).
T1 construct: In Situ Labelling of Cells with Hydrazine Probes for MS Experiments; endogenous in cells
T1 sequence (P38571 77-399): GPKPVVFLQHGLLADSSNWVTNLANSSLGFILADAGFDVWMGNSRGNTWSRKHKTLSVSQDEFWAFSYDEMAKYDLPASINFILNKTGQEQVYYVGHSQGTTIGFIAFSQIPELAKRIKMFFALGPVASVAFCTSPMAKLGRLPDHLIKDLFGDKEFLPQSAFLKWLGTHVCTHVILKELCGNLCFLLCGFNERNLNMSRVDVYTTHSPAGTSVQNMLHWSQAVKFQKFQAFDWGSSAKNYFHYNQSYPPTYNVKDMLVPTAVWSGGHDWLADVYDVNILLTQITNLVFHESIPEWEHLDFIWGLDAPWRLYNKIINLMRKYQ
The settings on record: SILAC H/L, MDA-MB-231.

Test [2] concerns the target T2, GAA Lysosomal alphaglucosidase (P10253) (Homo sapiens, UniProt P10253).
T2 construct: In Situ Labelling of Cells with Hydrazine Probes for MS Experiments; endogenous in cells
As to conditions: SILAC H/L, MDA-MB-231.

The target in test [3] is T3, NT5DC2 5nucleotidase domaincontaining (Q9H857) (Homo sapiens, UniProt Q9H857).
T3 construct: shared by both the endogenous and recombinant forms of these proteins; endogenous in cells; host or cells: HEK293T and MDA-MB-231
T3 sequence (Q9H857 1-520): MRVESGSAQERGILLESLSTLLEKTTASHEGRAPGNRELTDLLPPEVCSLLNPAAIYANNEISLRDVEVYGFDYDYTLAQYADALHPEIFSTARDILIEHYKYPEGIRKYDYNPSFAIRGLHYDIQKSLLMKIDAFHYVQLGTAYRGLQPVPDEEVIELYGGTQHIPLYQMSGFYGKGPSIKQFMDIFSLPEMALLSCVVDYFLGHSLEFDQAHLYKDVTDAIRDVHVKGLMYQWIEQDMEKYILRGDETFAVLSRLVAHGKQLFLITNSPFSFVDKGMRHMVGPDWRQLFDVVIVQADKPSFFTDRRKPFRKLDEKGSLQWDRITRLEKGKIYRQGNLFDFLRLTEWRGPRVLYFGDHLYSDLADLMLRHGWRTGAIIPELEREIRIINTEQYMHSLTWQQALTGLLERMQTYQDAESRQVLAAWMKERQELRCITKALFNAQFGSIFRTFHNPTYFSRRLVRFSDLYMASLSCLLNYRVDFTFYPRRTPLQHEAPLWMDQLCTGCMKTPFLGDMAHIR
As to conditions: SILAC H/L, HEK293T.

Test [4] concerns the target T4, EPDR1 Mammalian ependyminrelated (Q9UM22) (Homo sapiens, UniProt Q9UM22).
T4 construct: shared by both the endogenous and recombinant forms of these proteins; endogenous in cells; host or cells: HEK293T and MDA-MB-231
T4 sequence (Q9UM22 38-224): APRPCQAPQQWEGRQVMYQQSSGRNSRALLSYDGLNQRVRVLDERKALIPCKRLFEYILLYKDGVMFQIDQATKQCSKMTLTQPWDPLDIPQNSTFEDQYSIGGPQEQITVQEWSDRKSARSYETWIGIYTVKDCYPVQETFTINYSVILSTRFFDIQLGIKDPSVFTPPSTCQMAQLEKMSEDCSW
The settings on record: SILAC H/L, MDA-MB-231.

For `C#CCCNC(=O)c1ccc(NN)cc1.Cl` [probe 2, N-(but-3-yn-1-yl)-4-hydrazinylbenzamide hydrochloride], the enrichment ratioavg was 17 in test [1] (probe 2 1 mM 0.5 h vs probe 4), 20 in test [2] (probe 2 1 mM 0.5 h vs probe 4), 16 in test [3] (probe 2 1 mM 0.5 h vs probe 4) and 20 in test [4] (probe 2 1 mM 0.5 h vs probe 4). The competition ratioavg came to 3 in test [1] (probe 2 vs probe 2+10x probe 4), 4 in test [2] (probe 2 vs probe 2+10x probe 4), 4 in test [3] (probe 2 vs probe 2+10x probe 4) and 5 in test [4] (probe 2 vs probe 2+10x probe 4).

Regarding `C#CCNN.Cl` [probe 1, prop-2-yn-1-ylhydrazine hydrochloride], the enrichment ratioavg in test [1] (probe 1 3 mM 0.5 h vs probe 3) came to 7; in test [2] (probe 1 3 mM 0.5 h vs probe 3), 9; in test [3] (probe 1 3 mM 0.5 h vs probe 3), 11; in test [4] (probe 1 3 mM 0.5 h vs probe 3), 20. Also, the competition ratioavg in test [1] (probe 1 vs probe 1+10x probe 3) worked out at 4; in test [2] (probe 1 vs probe 1+10x probe 3), 2; in test [3] (probe 1 vs probe 1+10x probe 3) it was 3; in test [4] (probe 1 vs probe 1+10x probe 3), 20.
